Test results reported in the supplement of paper PMC11451515.

System: SEM cells
Assay: cell viability relative to DMSO control; higher = less cytotoxic
Conditions: 48 h
Method in brief: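 Viability values are per-plate percentages of DMSO wells, with background from cell-free wells. Library compounds in DMSO were pin-dosed, in an 11-point threefold series from 47 μM to 0.79 nM, onto NOMO1 or SEM (500 cells/well) or P12-Ichikawa (1000 cells/well) leukemia cells in 1536-well plates (5 μl). Those cells had been adapted for at least four passages in each medium, and CellTiter-Glo One luminescence was read after 48 h at 37°C.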

[1] = HPLM + 10% dialyzed FBS, 0.000781 µM
[2] = HPLM + 10% dialyzed FBS, 0.00234 µM
[3] = HPLM + 10% dialyzed FBS, 0.00702 µM
[4] = HPLM + 10% dialyzed FBS, 0.0211 µM
[5] = HPLM + 10% dialyzed FBS, 0.0632 µM
[6] = HPLM + 10% dialyzed FBS, 0.19 µM
[7] = HPLM + 10% dialyzed FBS, 0.569 µM
[8] = HPLM + 10% dialyzed FBS, 1.71 µM
[9] = HPLM + 10% dialyzed FBS, 5.12 µM
[10] = HPLM + 10% dialyzed FBS, 15.4 µM
[11] = HPLM + 10% dialyzed FBS, 46.1 µM
[12] = RPMI 5 mM glucose + 10% FBS, 0.000781 µM
[13] = RPMI 5 mM glucose + 10% FBS, 0.00234 µM
[14] = RPMI 5 mM glucose + 10% FBS, 0.00702 µM
[15] = RPMI 5 mM glucose + 10% FBS, 0.0211 µM
[16] = RPMI 5 mM glucose + 10% FBS, 0.0632 µM
[17] = RPMI 5 mM glucose + 10% FBS, 0.19 µM
[18] = RPMI 5 mM glucose + 10% FBS, 0.569 µM
[19] = RPMI 5 mM glucose + 10% FBS, 1.71 µM
[20] = RPMI 5 mM glucose + 10% FBS, 5.12 µM
[21] = RPMI 5 mM glucose + 10% FBS, 15.4 µM
[22] = RPMI 5 mM glucose + 10% FBS, 46.1 µM
[23] = RPMI 5 mM glucose + 10% dialyzed FBS, 0.000781 µM
[24] = RPMI 5 mM glucose + 10% dialyzed FBS, 0.00234 µM
[25] = RPMI 5 mM glucose + 10% dialyzed FBS, 0.00702 µM
[26] = RPMI 5 mM glucose + 10% dialyzed FBS, 0.0211 µM
[27] = RPMI 5 mM glucose + 10% dialyzed FBS, 0.0632 µM
[28] = RPMI 5 mM glucose + 10% dialyzed FBS, 0.19 µM
[29] = RPMI 5 mM glucose + 10% dialyzed FBS, 0.569 µM
[30] = RPMI 5 mM glucose + 10% dialyzed FBS, 1.71 µM
[31] = RPMI 5 mM glucose + 10% dialyzed FBS, 5.12 µM
[32] = RPMI 5 mM glucose + 10% dialyzed FBS, 15.4 µM
[33] = RPMI 5 mM glucose + 10% dialyzed FBS, 46.1 µM

SMILES	cell viability [1] [%]	cell viability [2] [%]	cell viability [3] [%]	cell viability [4] [%]	cell viability [5] [%]	cell viability [6] [%]	cell viability [7] [%]	cell viability [8] [%]	cell viability [9] [%]	cell viability [10] [%]	cell viability [11] [%]	cell viability [12] [%]	cell viability [13] [%]	cell viability [14] [%]	cell viability [15] [%]	cell viability [16] [%]	cell viability [17] [%]	cell viability [18] [%]	cell viability [19] [%]	cell viability [20] [%]	cell viability [21] [%]	cell viability [22] [%]	cell viability [23] [%]	cell viability [24] [%]	cell viability [25] [%]	cell viability [26] [%]	cell viability [27] [%]	cell viability [28] [%]	cell viability [29] [%]	cell viability [30] [%]	cell viability [31] [%]	cell viability [32] [%]	cell viability [33] [%]
CO[C@@H]1C(N(C)C(=O)c2ccccc2)C[C@H]2O[C@]1(C)n1c3ccccc3c3c4c(c5c6ccccc6n2c5c31)C(=O)NC4=O (some centres not stated)	70.6	69.4	95.4	89.2	75.8	92.6	90	80.5	40.3	14.7	7.83	68.2	66.2	92.1	91.2	86.5	86.1	75.1	47.7	19.4	10.7	7.46	81.5	84.1	91.7	79.6	82.7	102	79.7	74.4	35.7	13.2	8.6
CCNC(=O)[C@H]1O[C@@H](n2cnc3c(N)nc(NCCc4ccc(CCC(=O)O)cc4)nc32)[C@H](O)[C@@H]1O	100	90.7	106	111	115	107	107	110	106	104	78.8	83.6	33.4	91.4	97.6	103	108	110	88.1	92	89.6	62.3	88.3	84.3	101	102	116	116	117	96.3	109	99	74.8
COc1cc2ncnc(Nc3cccc(Br)c3)c2cc1OC	85.1	84.7	94.3	94.7	102	98	114	118	114	103	91.5	113	87.9	102	131	122	119	113	136	121	110	89.9	75	75.2	86	97.4	110	103	120	110	104	96.3	78.6
N\C1=N\C2=C(N=C[N]2COC(CO)CO)C(=O)N1	103	98.8	96.8	111	97	104	108	108	104	82.4	3.99	83.9	78.2	92.2	93.2	94.9	96.3	88.2	87.4	76	64.8	2.7	94.6	98.7	105	108	106	108	113	103	115	94.7	4.17
Oc1cc(O)cc(/C=C/c2ccc(O)c(O)c2)c1	86.5	85.8	89.6	80.1	99.9	92.7	93.3	106	78.1	77.9	44.6	101	102	95	107	101	101	115	92.7	85.3	67.5	14.2	87.9	92.7	78.6	82.6	87.5	89.8	97.6	84.2	82.4	63.4	27.3
CCNc1cc(NC2CCC(O)CC2)nc(Nc2ccc3c(ccn3Cc3ccccc3)c2)n1 (configuration not stated)	102	119	129	127	118	137	124	147	123	117	105	–	–	–	–	–	–	–	–	–	–	–	–	–	–	–	–	–	–	–	–	–	–
CC[C@@]1(O)C[C@H](O[C@H]2C[C@H](N(C)C)[C@H](O[C@H]3C[C@H](O)[C@H](O[C@H]4CCC(=O)[C@H](C)O4)[C@H](C)O3)[C@H](C)O2)c2c(cc3c(c2O)C(=O)c2c(O)cccc2C3=O)[C@H]1C(=O)OC	79.8	68.5	86.2	77.9	48.4	50	26.5	11.4	13.5	24	15.8	81	65.9	85.2	72.5	46.2	54.4	32.7	18.1	23.2	20.2	19.5	85.5	48.6	83.7	66.7	46.2	51.3	26.2	11.8	12.2	15.4	12.9
COc1cc([C@@H]2c3cc4c(cc3[C@@H](O[C@@H]3O[C@@H]5CO[C@@H](c6cccs6)O[C@H]5[C@H](O)[C@H]3O)[C@H]3COC(=O)[C@H]23)OCO4)cc(OC)c1O	94.9	85	89.8	95.1	83.1	85	90.8	16.4	77.9	15.3	4.57	96.7	120	110	103	101	84.7	78.7	14.4	80.1	12.6	5.23	86.7	88.9	79	85.1	79.6	68.6	66.8	9.66	63.4	11	3.6
COc1cc(N[S+](=O)([O-])c2ccc(N)cc2)nc(OC)n1	71.9	78.4	85.6	83	86.4	85.5	81.7	82.6	76.5	74.6	66.4	76.1	102	90.6	83.4	102	108	108	96.9	84.5	111	106	92.8	91.3	99.7	98.8	118	101	92.7	95.3	98.9	101	101
CC(C)NCC(O)c1ccc(NS(C)(=O)=O)cc1 (configuration not stated)	110	110	93	106	111	124	108	105	111	116	108	109	104	117	106	109	101	96.2	87.1	92.7	97.2	107	107	99.1	97.4	104	111	105	111	106	106	109	105
C#C[C@]1(O)CC[C@H]2[C@@H]3CCc4cc(OC)ccc4[C@H]3CC[C@@]21C	115	108	114	119	122	114	110	107	40.3	111	107	119	114	120	127	126	125	120	130	109	145	109	110	111	113	125	120	110	107	134	106	122	97.7
CCN(CC)CCN1C(=O)\C(=N/C2=CC=CC=C12)CC3=CC=C(OC)C=C3	68.2	67.5	87.2	76.3	85.3	80.3	99.1	83.6	75.2	86.8	85.4	82.7	93.1	97.8	78.5	93.8	105	101	106	91.9	92	107	78.2	89.4	87.1	89	94.3	97.1	112	96.6	93.3	88	102
COc1cccc2c1C(=O)c1c(O)c3c(c(O)c1C2=O)C[C@@](O)(C(C)=O)C[C@@H]3O[C@H]1C[C@H](N)[C@H](O)[C@H](C)O1	74.5	83.9	85.3	90.3	55.3	25.3	7.3	7.11	6.71	7.18	5.34	82.3	98.4	91.9	77.3	40	21.8	7.4	7.93	7.89	7.75	6.05	88.6	89	96.2	84.3	59.2	29.4	9.48	8.29	8.52	8.22	6.01
